Entries after “also recorded” stand apart in the source; their conditions may differ.
Columns and labels:
[1] = biological target: T1, TxtE (Streptomyces scabiei, UniProt C9ZDC6); assay: Binding affinities of L-tryptophan and substituted tryptophan analogs (FIG. 29A)
Protocol: Binding affinities and relative nitration conversions for L-tryptophan and several substituted tryptophan analogs were also assessed (FIGS. 29A-29B). […] Furthermore, the nitration activity of TxtE and TxtEBM3R was assessed. In addition to substrate, enzyme reactions typically contained NADP+, an NADPH regeneration system (glucose and glucose dehydrogenase, GDH), spinach ferredoxin (Fer) and ferredoxin reductase (Frd) as redox partners, and 3-[2-hydroxy-1-(l-methylethyl)-2-nitrosohydrazinyl]-1-propanamine (NOC-5) as an NO donor. Reverse-phase UHPLC coupled with a PDA detector and liquid chromatography-mass spectrometry (LC-MS, ESI positive) was employed to detect the nitrated products (FIG. 29B).

[2] = biological target: T1, TxtE; parameters: inferred from the pET28 vector and Ni-NTA purification) (C); made in house; host or cells: E. coli BL21 (DE3)-GOLD; conditions: previous studies (Barry et al. 2012; Dodani et al. 2014); cited from earlier work
[3] = biological target: T2, TxtE-BM3R (UniProt C9ZDC6+P14779); assay: Substrate binding affinity by UV-Vis spectral titration, TxtE-BM3R; parameters: species or system S. scabies 87.22 / B. megaterium ATCC 14581; conditions: for binding affinity lowered compared with native substrate L-tryptophan: TxtE-BM3R; for Kd: […] enzyme, 25 mM Tris-HCl pH 8.0, for 4-F-DL-tryptophan total concentration of the racemic mixture used; for binding affinity to TxtE-BM3R compared with TxtE: tighter/higher than to TxtE
T2 construct: P450BM3 (CYP102A1) reductase domain BM3R with its Domcut-predicted native linker, from B. megaterium ATCC 14581 (GenBank J04832.1); made in house; host or cells: E. coli BL21 (DE3)-GOLD
Protocol: (§1) Purified TxtE and its fusion enzymes were spectrally analyzed following a previous protocol (Ding et al. 2008). Briefly, the absorbance spectra (400-600 nm) of TxtE variants (3 M) in Tris-HCl (25 mM, pH 8) buffer were recorded with a Shimadzu UV2700 dual beam UV-Vis spectrophotometer. The ferric heme of enzymes was then saturated with carbon monoxide (Airgas) through bubbling and the spectra of the saturated enzyme solutions were recorded. Immediately, sodium dithionite solution (30 μL, 0.5 M) was added to reduce ferric ion, and reduced spectra were taken subsequently. CO reduced difference spectra of all enzymes were created by subtracting the CO binding spectra from the reduced spectra. Data were further analyzed by GraphPad Prism 4. […] Not more than 10 μl of substrate stock solutions prepared in the above buffer were added to the sample cuvette with an interval of 0.5 μl, and the spectra were recorded from 300 nm to 500 nm each time. The equal volume of buffer was added to the reference cuvette. The changes in absorbance (ΔA) were determined by subtracting the absorbance at ˜420 nm from that at ˜390 nm. Data were then fitted to Michaelis-Menten equation using GraphPad Prism 4.
as §1, with “previous protocol.” for “previous protocol (Ding et al. 2008).”, “(3 μM)” for “(3 M)”, “to the” for “to Michaelis-Menten”, “equation of ΔA=ΔAmax[L]/(Kd+[L])” for “equation”

[4] = biological target: T3, TxtE-BM3R (UniProt C9ZDC6); assay: as above; parameters: species or system S. scabies 87.22 / B. megaterium ATCC 14581; conditions: Kd, […] enzyme, 25 mM Tris-HCl pH 8.0; for 4-F-DL-tryptophan total concentration of the racemic mixture used
T3 construct: P450BM3 (CYP102A1) reductase domain BM3R with its Domcut-predicted native linker, from B. megaterium ATCC 14581 (GenBank J04832.1); made in house; host or cells: E. coli BL21 (DE3)-GOLD
Protocol: as §1
as §1, with “previous protocol.” for “previous protocol (Ding et al. 2008).”, “(3 μM)” for “(3 M)”, “to the” for “to Michaelis-Menten”, “equation of ΔA=ΔAmax[L]/(Kd+[L])” for “equation”

[5] = biological target: T4, TxtE-RhFRed (Streptomyces scabiei, UniProt C9ZDC6); assay: Substrate binding affinity by UV-Vis spectral titration, TxtE-RhFRed*; parameters: species or system S. scabies 87.22; conditions: […] enzyme, 25 mM Tris-HCl pH 8.0
T4 sequence (C9ZDC6 1-406): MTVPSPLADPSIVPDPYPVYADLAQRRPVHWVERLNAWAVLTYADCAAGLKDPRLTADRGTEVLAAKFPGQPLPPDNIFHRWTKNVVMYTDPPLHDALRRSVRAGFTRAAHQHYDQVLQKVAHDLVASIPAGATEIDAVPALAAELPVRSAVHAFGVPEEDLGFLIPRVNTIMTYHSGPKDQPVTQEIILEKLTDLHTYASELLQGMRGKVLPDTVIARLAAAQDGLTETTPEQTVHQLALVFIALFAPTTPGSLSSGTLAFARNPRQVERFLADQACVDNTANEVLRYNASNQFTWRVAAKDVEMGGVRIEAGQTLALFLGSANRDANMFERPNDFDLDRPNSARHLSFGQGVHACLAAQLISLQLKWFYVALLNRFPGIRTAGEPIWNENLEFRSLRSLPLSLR
T4 sequence (Q8KU27 445-773 partner): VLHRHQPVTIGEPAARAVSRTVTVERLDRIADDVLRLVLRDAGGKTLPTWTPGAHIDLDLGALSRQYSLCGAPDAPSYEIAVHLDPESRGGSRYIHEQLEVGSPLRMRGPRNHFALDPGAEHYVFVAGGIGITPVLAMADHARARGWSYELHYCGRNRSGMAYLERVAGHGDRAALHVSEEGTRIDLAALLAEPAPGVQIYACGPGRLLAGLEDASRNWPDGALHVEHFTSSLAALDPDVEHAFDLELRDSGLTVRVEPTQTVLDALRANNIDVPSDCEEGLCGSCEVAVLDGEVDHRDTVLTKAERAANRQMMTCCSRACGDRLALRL
Protocol: as §1, with “The equal volume of buffer was added to the reference cuvette.” left out, “Data were then fitted to Michaelis-Menten equation using GraphPad Prism 4.” left out
(§2) Purified TxtE and its fusion enzymes were spectrally analyzed following a previous protocol. Briefly, the absorbance spectra (400-600 nm) of TxtE variants (3 μM) in Tris-HCl (25 mM, pH 8) buffer were recorded with a Shimadzu UV2700 dual beam UV-Vis spectrophotometer. […] Data were further analyzed by GraphPad Prism 4. […]

[6] = biological target: T4, TxtE-RhFRed; assay: Substrate binding affinity by UV-Vis spectral titration, TxtE-RhFRed; parameters: species or system S. scabies 87.22; conditions: […] enzyme, 25 mM Tris-HCl pH 8.0
Protocol: as §1, with “The equal volume of buffer was added to the reference cuvette.” left out, “Data were then fitted to Michaelis-Menten equation using GraphPad Prism 4.” left out
as §2

[7] = biological target: T1, TxtE; assay: Substrate binding affinity by UV-Vis spectral titration, wild type TxtE; parameters: inferred from the pET28 vector and Ni-NTA purification) (C); made in house; host or cells: E. coli BL21 (DE3)-GOLD; species or system S. scabies 87.22; conditions: […] enzyme, 25 mM Tris-HCl pH 8.0
Protocol: as §1, with “The equal volume of buffer was added to the reference cuvette.” left out, “Data were then fitted to Michaelis-Menten equation using GraphPad Prism 4.” left out
as §2

[8] = Stability of NO donor NOC-5 at different pH values and temperatures; format: physicochemical
Protocol: The stability of NO donor NOC-5 was first examined. Its solution was incubated at different pH value (4.5 to 9.5) and temperatures (4 to 65° C.) for 30 min. It was then used as NO donor in the P450 nitration reactions. […] To determine pH effects on the activity of TxtE and TxtEBM3R, enzyme (1.5 μM) reactions were performed in 100 mM Tris-Cl or sodium phosphate with various pH values (4.5 to 9.5) at 20° C., 300 rpm for 30 min. To determine enzyme pH stability, 5 μL of 30 μM enzyme solutions were incubated at buffers with different pH value (4.5 to 9.5). After 15 minutes, other reaction components (95 μL) were mixed to initiate nitration reactions as described above. […] Products were quantitated by HPLC as described above. Conversion rate (%) was calculated by the equation of the area of under the 4-nitro-l-tryptophan peak/the total areas of both substrate and product peaks*100. […]
The stability of NO donor NOC-5 was first examined by incubating it in solutions of different pH values (4.5 to 9.5) and temperatures (4 to 65° C.) for 30 min. […] Products were quantitated by HPLC as described above. Peak area was determined with software installed in the Shimadzu Prominence UHPLC system. Conversion rate (%) was calculated as product (nmol)/product+substrate (nmol)×100 based on the standard curves of Trp and 4-NO2-Trp generated. […]

For `O=C(O)C(=O)Cc1c[nH]c2ccccc12` [indole-3-pyruvate], the “binding affinity relative to L-tryptophan (FIG. 29A)” value [1] was “significantly weakened interactions”.

In the case of `N[C@H](Cc1c[nH]c2ccccc12)C(=O)O` [D-tryptophan], the “spectral changes induced in TxtE solution” value [2] is listed as “unable to induce spectral changes”.

With `C[C@](N)(Cc1c[nH]c2ccccc12)C(=O)O` [α-Me-Trp] the “binding affinity relative to L-tryptophan (FIG. 29A)” value [1] was “significantly weakened interactions”.

With `NC(Cc1c[nH]c2cccc(F)c12)C(=O)O` (racemic) [4-F-DL-tryptophan, 4-F-dl-tryptophan] the “binding affinity lowered compared with native substrate L-tryptophan” value [3] was “about 8 times”, the Kd [3] was 189 ± 11.1 µM and the “binding affinity to TxtE-BM3R compared with TxtE” value [3] was “slightly tightened”.

In the case of `N[C@@H](Cc1c[nH]c2ccccc12)C(=O)O` [L-tryptophan], the Kd [4] is reported as 20.8 µM, the Kd [5] is reported as 24.3 µM and the Kd [6] is reported as 18.2 µM. The Kd [7] was 24.8 µM.

With `CC(C)N(CCCN)/[N+]([O-])=N/O` [NOC-5, 3-(Aminopropyl)-1-hydroxy-3-isopropyl-2-oxo-1-triazene] the “stability at temperatures higher than 25° C.” value ([8]; 4 to 65° C., 30 min) was “decomposed quickly and significantly” and the “stability at different pH values” ([8]; pH 4.5 to 9.5, 30 min) was “stable in all tested pH values; also recorded: stable over a broad pH range; also recorded: stable at all tested pH values”.

For `N[C@@H](Cc1c[nH]c2ccc(F)cc12)C(=O)O` [5-F-L-tryptophan, 5-F-l-tryptophan], the “binding affinity lowered compared with native substrate L-tryptophan” value [3] was ~3 times, the Kd [3] was 84.2 ± 4.37 µM and the Kd ([3]; listed as 5-F-l-tryptophan) was 84.2 ± 4.4 µM. For the same compound, the “binding affinity to TxtE-BM3R compared with TxtE” value [3] was “slightly tightened”.

With `N[C@H](CO)Cc1c[nH]c2ccccc12` [L-tryptophanol] the “binding affinity relative to L-tryptophan (FIG. 29A)” value [1] was “significantly weakened interactions”.
